The record followed here is patent publication US20260232640A1, “COMPOSITIONS AND METHODS FOR TREATING SPINAL MUSCULAR ATROPHY” (NMD Pharma A/S, priority 2023, published 2026).

“Also recorded” adds a separate entry of the source.

In data set [1] the test system is SMA (delta-7 mouse) animals. Put plainly: Tolerability after intraperitoneal injection in SMA model. The format is in vivo. As to conditions: 20 mg/kg intraperitoneally, five animals. The procedure: (§1) The employed model of SMA is a genetic knock-in model of severe SMA (“delta-7 mouse”). This model was developed in The Ohio State University laboratories (Foust et al, 2010). In this study the mice were administered at post-natal day 2 via intracerebroventricular injection 40 μg of morpholino ASOs directed against ISS-N1 to increase full-length SMN protein production from SMN2 to allow the animal to live to about 90 days. Five animals aged 67 days were investigated in a study where 20 mg/kg CIC-1 inhibitor ((S)-2-(4-bromo-2-ethynylphenoxy)propionic acid) in phosphate buffered saline was administered intraperitoneally and subjected to a rotarod test battery 90 minutes after injection (single intervention) and CMAP recording 120 min after injection.

The subject of data set [2] is SMA (delta-7 mouse) animals. Nature of the data set: Compound Muscle Action Potentials (CMAP) decrement, repeated sciatic nerve stimulation (EMG). The format is in vivo. As to conditions: for CMAP decrement, result in words: 10 to 50 Hz, before vs after treatment, significant from 20 to 50 Hz only; for CMAP Decrement % (10th/1st Stimulation): 20 mg/kg IP, 120 min after dosing. The procedure: as §1
Compound Muscle Action Potentials (CMAP) measurements were performed as previously described (Arnold et al, 2015). Briefly, the right sciatic nerve was stimulated with a pair of insulated 28-gauge monopolar needles (Teca, Oxford Instruments Medical, NY) placed in proximity to the sciatic nerve in the proximal hind limb. Recording electrodes consisted of a pair of fine ring wire electrodes (Alpine Biomed, Skovlunde, Denmark). The active recording electrode was placed distal to the knee joint over the proximal portion of the triceps surae muscle and the reference electrode over the metatarsal region of the foot. A disposable strip electrode (Carefusion, Middleton, WI) was placed on the contralateral hind limb to serve as the ground electrode. Data collection and analysis was performed using Cadwell Sierra Summit EMG unit (Cadwell laboratories, Kennewick, Washington, USA). Animals were stimulated in trains of 10 pulses of 50 μs at supramaximal voltage at 10, 20, 30, 40 and 50 Hz, with 10 seconds between stimulation trains.
This was performed prior to dosing, and then 120 min after IP dosing of 20 mg/kg of the CIC-1inhibitor. The relative amplitude from the 10th to the 1st stimulation is denoted as decrement, and a larger negative number designates a larger deficit/decrement, indicating a larger transmission failure from nerve to muscle.

Data set [3] concerns SMA (delta-7 mouse) animals. Nature of the data set: RotaRod test (latency to fall) in SMA model. The format is in vivo. As to conditions: 20 mg/kg IP; for latency to fall / running test, result in words: before vs 90 min after dosing. As for the experimental part:
as §1
RotaRod (Harward apparatus, MA, USA) were used to explore the physical capabilities of the SMA mouse model in vivo and examined coordination ability of legs and endurance on a horizontal accelerating, rotating rod. The RotaRod test was designed to start at a low revolution rate of 5 rpm of the horizontal roll and accelerate gradually to 45 rpm over 300 seconds (maximal test time). Animals were acclimatized and trained for several weeks prior to intervention, to avoid training bias. […] This was performed prior to dosing, and then 90 min after IP dosing of 20 mg/kg of the CIC-1inhibitor.

The nature of data set [4]: Tablet dissolution (USP2 paddles, HPLC). The format is physicochemical. As to conditions: immediate release tablets; USP2 paddles 75 RPM, 900 ml dissolution media pH 6.8, 37° C.; after a maximum of 60 minutes.
Description: Tablet dissolution was determined as follows.
Dissolution Media pH 6.8 was prepared by dissolving 27.3 g Na2HPO4·2H2O and 4.9 g Citric Acid in 1 L Milli-Q water. The pH was measured and adjusted if necessary to pH 6.8.
900 mL of dissolution media pH 6.8 was accurately transferred into each dissolution vessel. The apparatus was assembled, and the dissolution media was heated to 37° C.±0.5° C. The T=0 point was extracted from each vessel prior to dropping the tablets into the dissolution vessels. One tablet was gently dropped into each dissolution vessel, and rotation of the paddle was immediately started. Samples were taken that the sample extraction timepoints and analysed using the HPLC method.
Data set [5] is described as follows: Phase I clinical trial Part A, single dose pharmacokinetics in plasma. The format is in vivo, human. The procedure: • Collect blood (3 mL recommended) onto wet ice (K2EDTA tubes) • Immediately cool blood on crushed wet ice for maximum of 30 minutes • Harvest plasma as quickly as possible using refrigerated centrifuge by centrifuging at 2000 g for 10 minutes at 4° C. • Keep plasma on wet ice and immediately stabilise with 1:1 (v/v) addition of Water: Orthophosphoric Acid (100:2 v/v) prepared using ≥85% orthophosphoric acid and deionised water (e.g. 750 μL plasma+750 μL stabiliser). • Mix sample thoroughly. • Keep the stabilised plasma on wet ice during subsequent steps. • Divide the stabilised plasma into 5×250 μL aliquots in plastic cryotubes. • Store aliquots at nominal −70° C./−80° C. promptly.
• 1. Thaw frozen calibration standards, QC samples, blank matrix and study samples on wet ice. • 2. Vortex-mix all samples thoroughly. • 3. On wet ice aliquot 150 μL of calibration standards, QC samples, study samples, and blanks into a 2 mL 96-well plate. For the reagent blank add the same volume of Water. • 4. On wet ice add 25 μL of Methanol:Water (50:50) to wells containing blanks and the same volume of ISTD intermediate solution to all other wells. • 5. On wet ice add 125 μL of Water to each well. […] Condition SPE plate with 250 μL of Water. • 9. Load 250 μL of the sample onto the SPE plate (aspirate from the rim of the cone to avoid any debris collected at the bottom of the well). […]

For data set [6], the system named is healthy volunteers. Nature of the data set: Phase I clinical trial Part A, tolerability/safety (adverse events). The format is in vivo, human.

As to `C#Cc1cc(Br)ccc1O[C@@H](C)C(=O)O` [CIC-1 inhibitor, (S)-2-(4-bromo-2-ethynylphenoxy)propionic acid], the “adverse reactions to the compound injection” value in data set [1] is “did not exhibit any adverse reactions to the compound injection, nor any signs of muscle stiffness”. Moreover, the results for the “CMAP decrement, result in words” value in data set [2] and in data set [2] (listed as CIC-1inhibitor) were “only minimal decrement visible; also recorded: less pronounced in all animals at all frequencies; also recorded: reduced decrement in EMG (RNS) at all tested frequencies” and “less pronounced in all animals at all frequencies”, respectively. Further, the improvement in decrement in data set [2] (at 50 Hz, mouse model of SMA) was determined as 75%. The “CMAP Decrement % (10th/1st Stimulation)” value in data set [2] (stimulation frequency 10 Hz) was −7.0 ± 5.4%; in data set [2] (stimulation frequency 20 Hz), −8.1 ± 5.1%; in data set [2] (stimulation frequency 30 Hz) it was −8.4 ± 6.0%; in data set [2] (stimulation frequency 40 Hz), −8.9 ± 4.9%; in data set [2] (stimulation frequency 50 Hz) it was −7.7 ± 6.5%. Further, the “Time for remaining on rotor rod” value in data set [3] (90 min after dosing, delta-7 mice aged 67 days, pre-treatment 62.2 ± 40.2) came to 81 ± 63.2 s. In addition, the “latency to fall / running test, result in words” value was “All animals were able to stay on the rotating rod longer after treatment; also recorded: performed better in the running test” in data set [3] and “All animals were able to stay on the rotating rod longer after treatment” in data set [3] (listed as CIC-1inhibitor).

The half-life is how long it takes for the measured level to halve. Low readings indicate rapid decline, high ones slow decline. In the case of `C[C@H](Oc1ccc(Br)cc1-c1ccon1)C(=O)O` [NMD670, (2S)-2-[4-bromo-2-(1,2-oxazol-3-yl)phenoxy]propanoic acid], the “NMD670 released from the tablets” value in data set [4] is reported as “Not less than 80%”. This compound showed a half-life in data set [5] (plasma, oral, human, stated in rationale for washout period) of roughly 4 h. For the same compound, in data set [5] (single oral dose 100 mg, healthy male subjects), the “T1/2 (mean ± SD, hr)” value worked out at 5.07 ± 0.63 h. Also, the “adverse event that stopped dose escalation” value in data set [6] (1600 mg, dose level 7, spontaneously and fully resolved within hours) is recorded as “myotonia of moderate intensity observed in one subject”. Further, the subject discontinuations result in data set [6] (Part A) is given as “no subject discontinuations”. Also, the “total number of AEs reported” value in data set [6] (Part A, 35 healthy subjects, single doses) is given as 70. The “intensity of AEs” value in data set [6] (except one AE of myotonia (1600 mg) and tooth extraction (unrelated, 50 mg), moderate) is reported as “Most AEs were mild”. Also, the “dose-related AE” value in data set [6] (highest dose levels tested (1200 mg and 1600 mg), single dose) is reported as “transient myotonia”. Moreover, in data set [6] (of 70 AEs, Part A), the “number of AEs at least possibly drug related” value came to 47 and the “share of AEs at least possibly drug related” value is recorded as 67%. In data set [6] (single doses 50 to 1600 mg, 35 healthy subjects), the “serious or severe adverse effects” value is “No serious or severe adverse effects were reported”.
